Experimental data published in patent US12005107B2, “Compositions comprising recombinant Bacillus cells and a fungicide” (priority 2014, dated 2024).

System: Maize
Test: Plant growth promotion, maize whole plant biomass after drench of growing media
Assay type: in vivo

For trifloxystrobin, the “Efficacy % (additional % of plant weight compared with untreated control, actual effect observed)” value (drench at planting, after 14 days) was 1%, the “Found % (plant weight, 100% = untreated control)” value (drench at planting, after 14 days, relative to UTC) was 101% and the “Whole Plant Biomass” value (growing media drenched at planting, measured after 14 days, trifloxystrobin 0.024 mg/pot, BEE 7.85 × 10^8 CFU/pot) was 2.69 g.
